Experiment [1] has as its system Escherichia coli. Put plainly: Activity of Escherichia coli beta-lactamase VIM-1 by spectrophotometry.
In experiment [2] the test system is Escherichia coli. Put plainly: Ratio of Kcat to Km for Escherichia coli beta-lactamase VIM-1 by spectrophotometry.

Here are results for 10 compounds from ChEMBL document CHEMBL1275486, “Kinetic characterization of VIM-7, a divergent member of the VIM metallo-beta-lactamase family” (Antimicrob Agents Chemother, 2008).

The term Km denotes the substrate concentration at which the rate is half of its maximum. One may read the kcat as the number of substrate molecules converted per active site and unit of time at saturation. A word on the kcat/Km: it is the turnover number divided by the Michaelis constant.

`C[C@@H](O)[C@H]1C(=O)N2C(C(=O)O)=C(S[C@@H]3CN[C@H](C(=O)N(C)C)C3)[C@H](C)[C@H]12`: in the experiment on Escherichia coli [1], the Km worked out at 50 µM and the catalytic constant (kcat) is 13 s⁻¹. Further, the kcat/Km in the experiment with Escherichia coli [2] was found to be 260000 M⁻¹ s⁻¹.
In the case of `CC1(C)S[C@@H]2[C@H](NC(=O)[C@H](N)c3ccccc3)C(=O)N2[C@H]1C(=O)O`, in the experiment with Escherichia coli [1], the Km was determined as 920 µM and the kcat worked out at 35 s⁻¹. Also, the kcat/Km with Escherichia coli [2] was found to be 38000 M⁻¹ s⁻¹.
Consider `CC(C)(O/N=C(\C(=O)N[C@@H]1C(=O)N2C(C(=O)[O-])=C(C[n+]3ccccc3)CS[C@H]12)c1csc(N)n1)C(=O)O`, for which, in the experiment with Escherichia coli [1], the Km turned out to be 800 µM and the kcat stood at 60 s⁻¹. Moreover, the kcat/Km in the experiment on Escherichia coli [2] amounted to 75000 M⁻¹ s⁻¹.
Take `CC1(C)S[C@@H]2[C@H](NC(=O)Cc3ccccc3)C(=O)N2[C@H]1C(=O)O`: in the experiment with Escherichia coli [1], the Michaelis-Menten constant (Km) was 840 µM. Besides, the specificity constant (kcat/Km) with Escherichia coli [2] was 36000 M⁻¹ s⁻¹.
On to `CO/N=C(\C(=O)N[C@@H]1C(=O)N2C(C(=O)O)=C(COC(N)=O)CS[C@H]12)c1ccco1`, for which, in the experiment on Escherichia coli [1], the Km amounted to 42 µM and the kcat stood at 325 s⁻¹. The specificity constant (kcat/Km) with Escherichia coli [2] was determined as 7.7e+06 M⁻¹ s⁻¹.
For `C[C@@H](O)[C@H]1C(=O)N2C(C(=O)O)=C(SCCNC=N)C[C@H]12`, in that order: 1.5 µM, 0.2 s⁻¹ and 130000 M⁻¹ s⁻¹.
Consider `CC(=O)OCC1=C(C(=O)O)N2C(=O)[C@@H](NC(=O)Cc3cccs3)[C@H]2SC1`, for which, in the experiment with Escherichia coli [1], the Km worked out at 55 µM and the kcat amounted to 280 s⁻¹. The kcat/Km in the experiment on Escherichia coli [2] was found to be 5.1e+06 M⁻¹ s⁻¹.
Turning to `C[C@H]1[C@H](NC(=O)/C(=N\OC(C)(C)C(=O)O)c2csc(N)n2)C(=O)N1S(=O)(=O)O`, in the experiment with Escherichia coli [1], the Km is > 1000 µM and the kcat was < 0.01 s⁻¹.
On to `CCN1CCN(C(=O)N[C@@H](C(=O)N[C@@H]2C(=O)N3[C@@H]2SC(C)(C)[C@@H]3C(=O)O)c2ccccc2)C(=O)C1=O`, for which, in the experiment on Escherichia coli [1], the Michaelis constant (Km) worked out at 3500 µM and the turnover number (kcat) stood at 1900 s⁻¹. In the experiment on Escherichia coli [2], the kcat/Km was found to be 540000 M⁻¹ s⁻¹.
In the same order, the values of `CC1(C)[C@H](C(=O)O)N2C(=O)C[C@H]2S1(=O)=O` are 200 µM, 10 s⁻¹ and 50000 M⁻¹ s⁻¹.
